# *1 amine or outer side, *2 acyl side, *3 side chain or, on linkers, in order; H or OH if unused. Where a SMILES comes first, the peptide text is derived from it. Bridges are numbered along the chain shown (N, C = ends). [ ]: non-standard residue; d: D form. The star is where a group is joined. C20 diacid = O=C(O)CCCCCCCCCCCCCCCCCCC(=O)*; γGlu = O=C(O)[C@H](CCC(=O)[*:2])N[*:1]; Hyp = O=C(O)[C@@H]1C[C@@H](O)CN1; NMeI = CC[C@H](C)[C@H](NC)C(=O)O; Aad = N[C@@H](CCCC(=O)O)C(=O)O; Orn = NCCC[C@H](N)C(=O)O; Sar = CNCC(=O)O
# Experiments:
# [1] = target: T1, human amylin receptor 3 (hAMYR3), hCTR2 co-expressed with hRAMP3 (Homo sapiens, UniProt O60896+P30988); test: hAMYR3 cAMP assay (AlphaScreen) in COS7 cells; format: cell-based; settings: cAMP induction, COS7 cells expressing hAMYR3; Table 1; read-out: hAMYR3 EC50
# T1 construct: expressed in transfected cells
# T1 sequence (P30988 25-474): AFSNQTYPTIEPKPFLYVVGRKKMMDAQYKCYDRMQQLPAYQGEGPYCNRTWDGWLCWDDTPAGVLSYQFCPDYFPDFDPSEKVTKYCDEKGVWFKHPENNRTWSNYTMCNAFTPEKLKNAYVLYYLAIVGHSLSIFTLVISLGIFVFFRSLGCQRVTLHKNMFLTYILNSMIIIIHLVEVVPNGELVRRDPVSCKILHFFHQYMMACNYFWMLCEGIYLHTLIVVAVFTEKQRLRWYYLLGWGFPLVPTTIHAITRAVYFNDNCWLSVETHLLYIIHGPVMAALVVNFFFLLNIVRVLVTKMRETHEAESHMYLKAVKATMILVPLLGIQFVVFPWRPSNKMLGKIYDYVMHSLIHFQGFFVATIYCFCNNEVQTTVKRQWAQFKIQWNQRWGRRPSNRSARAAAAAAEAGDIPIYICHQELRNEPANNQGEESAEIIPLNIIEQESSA
# T1 sequence (O60896 24-148 partner): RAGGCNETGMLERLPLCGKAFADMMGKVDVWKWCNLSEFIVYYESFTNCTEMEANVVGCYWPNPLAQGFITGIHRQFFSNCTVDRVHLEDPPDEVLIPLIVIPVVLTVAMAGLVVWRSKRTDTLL
# From the text: The cell line COS7, originating from African Green Monkey kidney fibroblast cells, was used for establishment of the stable cell lines described below. The COS7 cellular background was used due to it being RAMP naïve, and as such it provides the best available system for testing of the monomeric hCTR and different heterodimeric amylin receptor subtypes functionally generated by introduction of the individual RAMPs.
# A cell line expressing the human amylin receptor 3 (hAMYR3) was generated in the COS7 cellular background as stable clones. In brief, hCTR2 (GI:4502547) and hRAMP3 (GI:118572586) were amplified by PCR using primers encoding terminal restriction sites for subcloning. The 5′-end primers additionally encoded a near Kozak consensus sequence to ensure efficient translation. The fidelity of the DNA encoding the receptor was confirmed by DNA sequencing. The PCR products encoding the receptor were subcloned into a proprietary tri-cistronic mammalian expression vector with RAMP3, hCTR2 and neomycin (G418) resistance marker. The mammalian expression vector encoding the receptor was transfected into COS7 cells by a standard liposome transfection method. 48 hours post-transfection, cells were seeded for limited dilution cloning and selected with 1 mg/ml G418 in the culture medium. After 3 weeks, surviving colonies of hAMY3R-expressing cells were picked, propagated and tested in the amylin efficacy assay as described in Example 3 below. The functional generation of the amylin receptor phenotype was verified in the efficacy assay by a left-shifted efficacy response to amylin relative to monomeric calcitonin receptor, and one hAMYR3-expressing clone was chosen for compound profiling.
# In vitro activity of test peptides at the hCTR2 and hAMYR3 receptors was assessed by measuring the induction of cAMP following stimulation of the receptor using the AlphaScreen® cAMP Assay kit from Perkin-Elmer.
# Briefly, COS7 cells expressing hCTR2 (see Example 2, above) were seeded at 30-40,000 cells per well in 96-well microtiter plates coated with 0.01% poly-L-lysine, and grown for 1 day in culture in 100 μl growth medium [DMEM, 10% FCS, Penicillin (100 IU/ml), Streptomycin (100 μg/ml)]. On the day of analysis, growth medium was removed and the cells were washed once with 200 μl Tyrode buffer [Tyrode's Salts (9.6 g/I), 10 mM HEPES, pH 7.4]. Cells were incubated in 100 μl Tyrode buffer containing increasing concentrations of test peptides, 100 µM IBMX and 0.1% casein for 15 min at 37° C. The reaction was stopped by carefully decanting off the compound/buffer medium and replacing it with lysis/detection buffer (80 μl 0.1% w/v BSA, 5 mM HEPES, 0.3% v/v Tween-20 in deionized water). After incubation at room temperature for 10 min., the cAMP content of the resulting cell lysate was estimated according to the AlphaScreen® cAMP Assay manufacturer's instructions. EC50 values were estimated by computer-aided curve fitting using the 4-parameter logistic (4PL) non-linear model.
# [2] = target: T2, human calcitonin receptor (hCTR2) (Homo sapiens, UniProt P30988); test: hCTR2 cAMP assay (AlphaScreen) in COS7 cells; format: cell-based; settings: cAMP induction, COS7 cells expressing hCTR2; Table 1; read-out: hCTR2 EC50
# T2 construct: expressed in transfected cells
# T2 sequence (P30988 25-474): T1 sequence (P30988 25-474)
# How it was run: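 cAMP induction, read by AlphaScreen after lysis, gives EC50 values via 4PL curve fitting. Peptides were applied at rising concentrations for 15 min at 37 °C, with IBMX and 0.1% casein in HEPES-buffered Tyrode pH 7.4, to COS7 cells (no endogenous RAMPs) stably expressing human CTR2.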
SMILES,EC50 [1],EC50 [2]
"CC[C@H](C)[C@@H](C(=O)N[C@@H](CC(C)C)C(=O)N[C@@H](CO)C(=O)N[C@@H](CO)C(=O)N[C@H](C(=O)N[C@@H](CCC(=O)O)C(=O)N[C@H](C(=O)NCC(=O)N[C@@H](CO)C(=O)N[C@@H](Cc1ccccc1)C(=O)N[C@H](C(=O)N1C[C@H](O)C[C@H]1C(N)=O)[C@@H](C)O)C(C)C)[C@@H](C)O)N(C)C(=O)[C@H](C)NC(=O)CN(C)C(=O)[C@H](Cc1ccccc1)NC(=O)[C@H](CO)NC(=O)[C@H](CO)NC(=O)[C@H](CCCNC(=N)N)NC(=O)[C@H](CC(N)=O)NC(=O)[C@H](CC(C)C)NC(=O)[C@H](Cc1ccccc1)NC(=O)[C@H](Cc1c[nH]cn1)NC(=O)[C@H](C)NC(=O)[C@H](CC(C)C)NC(=O)[C@H](CCCNC(=N)N)NC(=O)[C@H](CCC(=O)O)NC(=O)[C@@H](NC(=O)[C@H](C)NC(=O)[C@@H]1CSSC[C@H](NC(=O)[C@H](CCCNC(=N)N)NC(=O)CC[C@H](NC(=O)CCCCCCCCCCCCCCCCCCC(=O)O)C(=O)O)C(=O)NCC(=O)N[C@@H]([C@@H](C)O)C(=O)N[C@@H](C)C(=O)N[C@@H]([C@@H](C)O)C(=O)N1)[C@@H](C)O [Compound 33, [19CD]-isoGlu-R-C( )-GTAT-C( )-ATERLAHFLNRSSF-Gly(Me)-A-Ile(Me)-LSSTEVGSFT-Hyp-NH2] ({C20 diacid-γGlu}-RCGTATCATERLAHFLNRSSF[Sar]A[NMeI]LSSTEVGSFT[Hyp]-NH2; disulfide 2-7)",0.15 nM,0.11 nM
"CC[C@H](C)[C@@H](C(=O)N[C@@H](CC(C)C)C(=O)N[C@@H](CO)C(=O)N[C@@H](CO)C(=O)N[C@H](C(=O)N[C@@H](CCC(=O)O)C(=O)N[C@H](C(=O)NCC(=O)N[C@@H](CO)C(=O)N[C@@H](CCCN)C(=O)N[C@H](C(=O)N1C[C@H](O)C[C@H]1C(N)=O)[C@@H](C)O)C(C)C)[C@@H](C)O)N(C)C(=O)[C@H](C)NC(=O)CN(C)C(=O)[C@H](Cc1ccccc1)NC(=O)[C@H](CO)NC(=O)[C@H](CO)NC(=O)[C@H](CCCNC(=N)N)NC(=O)[C@@H](NC(=O)[C@H](CC(C)C)NC(=O)[C@H](Cc1ccccc1)NC(=O)[C@H](CCCC(=O)O)NC(=O)[C@H](C)NC(=O)[C@H](CC(C)C)NC(=O)[C@H](CCCNC(=N)N)NC(=O)[C@H](CCC(=O)O)NC(=O)[C@@H](NC(=O)[C@H](C)NC(=O)[C@@H]1CSSC[C@H](NC(=O)[C@H](CCCNC(=N)N)NC(=O)CC[C@H](NC(=O)CCCCCCCCCCCCCCCCCCC(=O)O)C(=O)O)C(=O)NCC(=O)N[C@@H]([C@@H](C)O)C(=O)N[C@@H](C)C(=O)N[C@@H]([C@@H](C)O)C(=O)N1)[C@@H](C)O)[C@@H](C)O [Compound 44, [19CD]-isoGlu-R-C( )-GTAT-C( )-ATERLA-Aad-FLTRSSF-Gly(Me)-A-Ile(Me)-LSSTEVGS-Orn-T-Hyp-NH2] ({C20 diacid-γGlu}-RCGTATCATERLA[Aad]FLTRSSF[Sar]A[NMeI]LSSTEVGS[Orn]T[Hyp]-NH2; disulfide 2-7)",0.3 nM,0.2 nM

# The remaining compounds from weak to strong by EC50 [1], led by results:
EC50 [1],EC50 [2],SMILES
0.22 nM,0.16 nM,"CC[C@H](C)[C@@H](C(=O)N[C@@H](CC(C)C)C(=O)N[C@@H](CO)C(=O)N[C@@H](CO)C(=O)N[C@H](C(=O)N[C@@H](CCC(=O)O)C(=O)N[C@H](C(=O)NCC(=O)N[C@@H](CO)C(=O)N[C@@H](Cc1ccccc1)C(=O)N[C@H](C(=O)N1CCC[C@H]1C(N)=O)[C@@H](C)O)C(C)C)[C@@H](C)O)N(C)C(=O)[C@H](C)NC(=O)CN(C)C(=O)[C@H](Cc1ccccc1)NC(=O)[C@H](CO)NC(=O)[C@H](CO)NC(=O)[C@H](CCCNC(=N)N)NC(=O)[C@H](CCC(N)=O)NC(=O)[C@H](CC(C)C)NC(=O)[C@H](Cc1ccccc1)NC(=O)[C@H](Cc1c[nH]cn1)NC(=O)[C@H](C)NC(=O)[C@H](CC(C)C)NC(=O)[C@H](CCCNC(=N)N)NC(=O)[C@H](CCC(=O)O)NC(=O)[C@@H](NC(=O)[C@H](C)NC(=O)[C@@H]1CSSC[C@H](NC(=O)[C@H](CCCNC(=N)N)NC(=O)CC[C@H](NC(=O)CCCCCCCCCCCCCCCCCCC(=O)O)C(=O)O)C(=O)NCC(=O)N[C@@H]([C@@H](C)O)C(=O)N[C@@H](C)C(=O)N[C@@H]([C@@H](C)O)C(=O)N1)[C@@H](C)O [Compound 39, [19CD]-isoGlu-R-C( )-GTAT-C( )-ATERLAHFLQRSSF-Gly(Me)-A-Ile(Me)-LSSTEVGSFTP-NH2] ({C20 diacid-γGlu}-RCGTATCATERLAHFLQRSSF[Sar]A[NMeI]LSSTEVGSFTP-NH2; disulfide 2-7)"
0.19 nM,0.12 nM,"CC[C@H](C)[C@@H](C(=O)N[C@@H](CC(C)C)C(=O)N[C@@H](CO)C(=O)N[C@@H](CO)C(=O)N[C@H](C(=O)N[C@@H](CCC(=O)O)C(=O)N[C@H](C(=O)NCC(=O)N[C@@H](CO)C(=O)N[C@@H](Cc1ccccc1)C(=O)N[C@H](C(=O)N1CCC[C@H]1C(N)=O)[C@@H](C)O)C(C)C)[C@@H](C)O)N(C)C(=O)[C@H](C)NC(=O)CN(C)C(=O)[C@H](Cc1ccccc1)NC(=O)[C@H](CO)NC(=O)[C@H](CO)NC(=O)[C@H](CCCNC(=N)N)NC(=O)[C@H](CC(N)=O)NC(=O)[C@H](CC(C)C)NC(=O)[C@H](Cc1ccccc1)NC(=O)[C@H](Cc1c[nH]cn1)NC(=O)[C@H](C)NC(=O)[C@H](CC(C)C)NC(=O)[C@H](CCCNC(=N)N)NC(=O)[C@H](CCC(=O)O)NC(=O)[C@@H](NC(=O)[C@H](C)NC(=O)[C@@H]1CSSC[C@H](NC(=O)[C@H](CCCNC(=N)N)NC(=O)CC[C@H](NC(=O)CCCCCCCCCCCCCCCCCCC(=O)O)C(=O)O)C(=O)NCC(=O)N[C@@H]([C@@H](C)O)C(=O)N[C@@H](C)C(=O)N[C@@H]([C@@H](C)O)C(=O)N1)[C@@H](C)O [Compound 40, [19CD]-isoGlu-R-C( )-GTAT-C( )-ATERLAHFLNRSSF-Gly(Me)-A-Ile(Me)-LSSTEVGSFTP-NH2] ({C20 diacid-γGlu}-RCGTATCATERLAHFLNRSSF[Sar]A[NMeI]LSSTEVGSFTP-NH2; disulfide 2-7)"
0.07 nM,0.04 nM,"CC[C@H](C)[C@@H](C(=O)N[C@@H](CC(C)C)C(=O)N[C@@H](CO)C(=O)N[C@@H](CO)C(=O)N[C@H](C(=O)N[C@@H](CCC(=O)O)C(=O)N[C@H](C(=O)NCC(=O)N[C@@H](CO)C(=O)N[C@@H](CO)C(=O)N[C@H](C(=O)N1CCC[C@H]1C(N)=O)[C@@H](C)O)C(C)C)[C@@H](C)O)N(C)C(=O)[C@H](C)NC(=O)CN(C)C(=O)[C@H](Cc1ccccc1)NC(=O)[C@H](CO)NC(=O)[C@H](CO)NC(=O)[C@H](CCCNC(=N)N)NC(=O)[C@H](Cc1c[nH]cn1)NC(=O)[C@H](CC(C)C)NC(=O)[C@H](Cc1ccccc1)NC(=O)[C@H](Cc1c[nH]cn1)NC(=O)[C@H](C)NC(=O)[C@H](CC(C)C)NC(=O)[C@H](CCCNC(=N)N)NC(=O)[C@H](CCC(=O)O)NC(=O)[C@@H](NC(=O)[C@H](C)NC(=O)[C@@H]1CSSC[C@H](NC(=O)[C@H](CCCNC(=N)N)NC(=O)CC[C@H](NC(=O)CCCCCCCCCCCCCCCCCCC(=O)O)C(=O)O)C(=O)NCC(=O)N[C@@H]([C@@H](C)O)C(=O)N[C@@H](C)C(=O)N[C@@H]([C@@H](C)O)C(=O)N1)[C@@H](C)O [Compound 37, [19CD]-isoGlu-R-C( )-GTAT-C( )-ATERLAHFLHRSSF-Gly(Me)-A-Ile(Me)-LSSTEVGSSTP-NH2] ({C20 diacid-γGlu}-RCGTATCATERLAHFLHRSSF[Sar]A[NMeI]LSSTEVGSSTP-NH2; disulfide 2-7)"
